According to patent US12616701B2, “Solid state forms of Resmetirom” (ASSIA CHEMICAL INDUSTRIES LTD., priority 2020, dated 2026):
Where a name gives a salt, the structure may show the parent alone.

Tests used:
[1] = Hygroscopicity of the crystalline form; format: physicochemical; details: crystalline solid form
[2] = Polymorphic stability at relative humidity, room temperature; format: physicochemical; details: for at least 7 days

SMILES | hygroscopicity [1] | relative humidity up to which the form is polymorphically stable [2]
CC(C)c1cc(Oc2c(Cl)cc(-n3nc(C#N)c(=O)[nH]c3=O)cc2Cl)n[nH]c1=O [Form RC1-A, Resmetirom:nicotinamide] | non-hygroscopic | up to 80 % relative humidity
CC(C)c1cc(Oc2c(Cl)cc(-n3nc(C#N)c(=O)[nH]c3=O)cc2Cl)n[nH]c1=O [Form RC2-A, Resmetirom:caffeine] | non-hygroscopic | up to 100 % relative humidity

The remaining lines, values ahead:

hygroscopicity [1] | relative humidity up to which the form is polymorphically stable [2] | SMILES
non-hygroscopic | up to 80 % relative humidity | CC(C)c1cc(Oc2c(Cl)cc(-n3nc(C#N)c(=O)[nH]c3=O)cc2Cl)n[nH]c1=O [Form 20, 2-[3,5-dichloro-4-[(6-oxo-5-propan-2-yl-1H-pyridazin-3-yl)oxy]phenyl]-3,5-dioxo-1,2,4-triazine-6-carbonitrile]
non-hygroscopic | up to 80 % relative humidity | CC(C)c1cc(Oc2c(Cl)cc(-n3nc(C#N)c(=O)[nH]c3=O)cc2Cl)n[nH]c1=O [Form RC2-B, Resmetirom:caffeine]
non-hygroscopic | up to 80 % relative humidity | CC(C)c1cc(Oc2c(Cl)cc(-n3nc(C#N)c(=O)[nH]c3=O)cc2Cl)n[nH]c1=O [Form R3-A, Resmetirom:L-proline]
non-hygroscopic | up to 100 % relative humidity | CC(C)c1cc(Oc2c(Cl)cc(-n3nc(C#N)c(=O)[nH]c3=O)cc2Cl)n[nH]c1=O [Form R2-A, Resmetirom piperazine salt]
